According to PubChem BioAssay (NCI):
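The compound was tested at five concentrations on cells cultured in 96-well plates, with a 48-hour exposure period. GI50 = concentration required for 50% inhibition of growth. TGI is the concentration that stops growth completely.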

Columns and labels:
Assay in all cases: NCI tumour cell line growth inhibition, 48 h
NCI-H460 lung = test system: NCI-H460 lung
COLO 205 colon = test system: COLO 205 colon
SW-620 colon = test system: SW-620 colon
NCI-H226 lung = test system: NCI-H226 lung
SK-MEL-28 melanoma = test system: SK-MEL-28 melanoma
HL-60(TB) leukemia = test system: HL-60(TB) leukemia
T-47D breast = test system: T-47D breast
OVCAR-5 ovarian = test system: OVCAR-5 ovarian
SK-MEL-2 melanoma = test system: SK-MEL-2 melanoma
OVCAR-3 ovarian = test system: OVCAR-3 ovarian
BT-549 breast = test system: BT-549 breast
MALME-3M melanoma = test system: MALME-3M melanoma
SR leukemia = test system: SR leukemia

S=c1[nH]c(=S)c2cc(Sc3ccc4[nH]c(=S)[nH]c(=S)c4c3)ccc2[nH]1
TGI (NCI-H460 lung): > 100 µM
TGI (COLO 205 colon): 52.4 µM
TGI (SW-620 colon): > 100 µM
TGI (NCI-H226 lung): 52.5 µM
TGI (SK-MEL-28 melanoma): > 100 µM
TGI (HL-60(TB) leukemia): 62.8 µM
TGI (T-47D breast): > 100 µM
TGI (OVCAR-5 ovarian): > 100 µM
TGI (SK-MEL-2 melanoma): > 100 µM
TGI (OVCAR-3 ovarian): > 100 µM
TGI (BT-549 breast): 73.2 µM
TGI (MALME-3M melanoma): > 100 µM
TGI (SR leukemia): 51.2 µM

OC1COC(n2c3ccc(Br)cc3c3ccc4c5ccccc5[nH]c4c32)C(O)C1O (stereo unspecified)
TGI (NCI-H460 lung): 18.6 µM
TGI (COLO 205 colon): 3.65 µM
TGI (SW-620 colon): 29.4 µM
TGI (NCI-H226 lung): 30.3 µM
TGI (SK-MEL-28 melanoma): 28.9 µM
TGI (HL-60(TB) leukemia): 8.75 µM
TGI (T-47D breast): 20.1 µM
TGI (OVCAR-5 ovarian): 12.4 µM
TGI (SK-MEL-2 melanoma): 19.8 µM
TGI (OVCAR-3 ovarian): 12.5 µM
TGI (BT-549 breast): 26.3 µM
TGI (MALME-3M melanoma): 15.3 µM
TGI (SR leukemia): 13.3 µM

Cc1cccc(NC(=S)Nc2ccccc2Cl)n1
TGI (NCI-H460 lung): > 100 µM
TGI (COLO 205 colon): > 100 µM
TGI (SW-620 colon): > 100 µM
TGI (NCI-H226 lung): > 100 µM
TGI (SK-MEL-28 melanoma): > 100 µM
TGI (HL-60(TB) leukemia): > 100 µM
TGI (T-47D breast): > 100 µM
TGI (OVCAR-5 ovarian): > 100 µM
TGI (SK-MEL-2 melanoma): > 100 µM
TGI (OVCAR-3 ovarian): > 100 µM
TGI (BT-549 breast): > 100 µM
TGI (MALME-3M melanoma): 88.3 µM
TGI (SR leukemia): > 100 µM

COc1cc2c(cc1OC)CC(N=[N+]=[N-])c1cc(OC)c(OC)cc1/C=C\2 (stereo unspecified)
TGI (NCI-H460 lung): > 100 µM
TGI (COLO 205 colon): > 100 µM
TGI (SW-620 colon): > 100 µM
TGI (NCI-H226 lung): > 100 µM
TGI (SK-MEL-28 melanoma): > 100 µM
TGI (HL-60(TB) leukemia): > 100 µM
TGI (T-47D breast): > 100 µM
TGI (OVCAR-5 ovarian): > 100 µM
TGI (SK-MEL-2 melanoma): > 100 µM
TGI (OVCAR-3 ovarian): > 100 µM
TGI (BT-549 breast): 38.8 µM
TGI (SR leukemia): > 100 µM

c1ccc(CSc2nc(N3CCOCC3)c3cn[nH]c3n2)cc1
TGI (NCI-H460 lung): 59 µM
TGI (COLO 205 colon): 30.4 µM
TGI (SW-620 colon): 64.8 µM
TGI (NCI-H226 lung): 73.1 µM
TGI (SK-MEL-28 melanoma): 43.4 µM
TGI (HL-60(TB) leukemia): > 100 µM
TGI (T-47D breast): 68.5 µM
TGI (OVCAR-5 ovarian): > 100 µM
TGI (SK-MEL-2 melanoma): 34 µM
TGI (OVCAR-3 ovarian): > 100 µM
TGI (BT-549 breast): 40.3 µM
TGI (MALME-3M melanoma): 31.8 µM
TGI (SR leukemia): 63.6 µM

COC(=O)/C=c1/c2ccccc2n2nc3ccccc3c12
TGI (NCI-H460 lung): > 100 µM
TGI (COLO 205 colon): > 100 µM
TGI (SW-620 colon): > 100 µM
TGI (SK-MEL-28 melanoma): > 100 µM
TGI (HL-60(TB) leukemia): > 100 µM
TGI (T-47D breast): > 100 µM
TGI (OVCAR-5 ovarian): > 100 µM
TGI (SK-MEL-2 melanoma): > 100 µM
TGI (OVCAR-3 ovarian): > 100 µM
TGI (BT-549 breast): > 100 µM
TGI (MALME-3M melanoma): > 100 µM
TGI (SR leukemia): 17.1 µM

COc1cccc(-c2cc(=O)c3c(C)ccnc3[nH]2)c1
TGI (NCI-H460 lung): > 34.4 µM
TGI (COLO 205 colon): 0.0854 µM
TGI (SW-620 colon): > 100 µM
TGI (NCI-H226 lung): 0.0742 µM
TGI (HL-60(TB) leukemia): 0.0532 µM
TGI (T-47D breast): > 100 µM
TGI (OVCAR-5 ovarian): > 100 µM
TGI (SK-MEL-2 melanoma): > 100 µM
TGI (BT-549 breast): > 100 µM
TGI (MALME-3M melanoma): > 100 µM
TGI (SR leukemia): 0.0396 µM

Cn1c(-c2cccs2)cc(-c2cccs2)c1-c1ccsc1
TGI (NCI-H460 lung): > 100 µM
TGI (COLO 205 colon): > 100 µM
TGI (SW-620 colon): > 100 µM
TGI (NCI-H226 lung): > 100 µM
TGI (SK-MEL-28 melanoma): > 100 µM
TGI (HL-60(TB) leukemia): > 100 µM
TGI (T-47D breast): > 100 µM
TGI (OVCAR-5 ovarian): > 100 µM
TGI (SK-MEL-2 melanoma): 98.1 µM
TGI (OVCAR-3 ovarian): 75.2 µM
TGI (BT-549 breast): > 100 µM
TGI (SR leukemia): > 100 µM

Cc1ccc(Nc2cc(=O)[nH]c(=S)[nH]2)cc1
TGI (NCI-H460 lung): > 100 µM
TGI (COLO 205 colon): > 100 µM
TGI (SW-620 colon): > 100 µM
TGI (NCI-H226 lung): > 100 µM
TGI (HL-60(TB) leukemia): > 100 µM
TGI (T-47D breast): > 100 µM
TGI (OVCAR-5 ovarian): > 100 µM
TGI (SK-MEL-2 melanoma): > 100 µM
TGI (OVCAR-3 ovarian): > 100 µM
TGI (BT-549 breast): > 100 µM
TGI (MALME-3M melanoma): > 100 µM
TGI (SR leukemia): > 100 µM

CCN(CC)C(=S)SS(=O)(=O)c1ccc([N+](=O)[O-])cc1
TGI (NCI-H460 lung): > 100 µM
TGI (COLO 205 colon): > 100 µM
GI50 (SW-620 colon): 17.9 µM
TGI (SW-620 colon): 37.1 µM
GI50 (NCI-H226 lung): 83.8 µM
TGI (NCI-H226 lung): > 100 µM
GI50 (SK-MEL-28 melanoma): 19 µM
TGI (SK-MEL-28 melanoma): 38.3 µM
TGI (T-47D breast): > 100 µM
TGI (OVCAR-5 ovarian): > 100 µM
TGI (SK-MEL-2 melanoma): > 100 µM
GI50 (OVCAR-3 ovarian): 35.4 µM
TGI (OVCAR-3 ovarian): > 100 µM
TGI (BT-549 breast): > 100 µM
TGI (MALME-3M melanoma): 37.9 µM
TGI (SR leukemia): 54.5 µM

CNC(=S)N/N=C/c1cccc(C)n1
TGI (NCI-H460 lung): 60.9 µM
TGI (COLO 205 colon): > 85.2 µM
TGI (SW-620 colon): > 100 µM
TGI (NCI-H226 lung): > 83.9 µM
TGI (SK-MEL-28 melanoma): > 100 µM
TGI (HL-60(TB) leukemia): > 75.9 µM
TGI (T-47D breast): > 92.4 µM
TGI (OVCAR-5 ovarian): > 100 µM
TGI (SK-MEL-2 melanoma): > 100 µM
TGI (OVCAR-3 ovarian): > 100 µM
TGI (BT-549 breast): 86.3 µM
TGI (MALME-3M melanoma): > 100 µM
TGI (SR leukemia): > 78.1 µM

COC(=O)c1cc(C#Cc2cc(OC)ccc2OC)ccc1OC
TGI (NCI-H460 lung): > 100 µM
TGI (COLO 205 colon): 52.3 µM
TGI (SW-620 colon): > 100 µM
TGI (NCI-H226 lung): > 100 µM
TGI (SK-MEL-28 melanoma): > 100 µM
TGI (HL-60(TB) leukemia): > 100 µM
TGI (T-47D breast): 34.5 µM
TGI (OVCAR-5 ovarian): > 100 µM
TGI (SK-MEL-2 melanoma): > 100 µM
GI50 (OVCAR-3 ovarian): 13.6 µM
TGI (OVCAR-3 ovarian): 77.6 µM
TGI (BT-549 breast): > 100 µM
TGI (MALME-3M melanoma): > 100 µM
TGI (SR leukemia): > 100 µM

COc1cc(COC(=O)N2CCC2C(=O)O)c([N+](=O)[O-])cc1OC (stereo unspecified)
TGI (NCI-H460 lung): > 100 µM
TGI (COLO 205 colon): > 100 µM
TGI (SW-620 colon): > 100 µM
TGI (NCI-H226 lung): > 100 µM
TGI (SK-MEL-28 melanoma): > 100 µM
TGI (HL-60(TB) leukemia): > 100 µM
TGI (T-47D breast): > 100 µM
TGI (OVCAR-5 ovarian): > 100 µM
TGI (OVCAR-3 ovarian): > 100 µM
TGI (BT-549 breast): > 100 µM
TGI (MALME-3M melanoma): > 100 µM
TGI (SR leukemia): > 100 µM

N#Cc1ccc(OCc2nc3cc(C(F)(F)F)ccc3nc2-c2ccccc2)cc1
TGI (NCI-H460 lung): > 100 µM
TGI (COLO 205 colon): > 100 µM
TGI (SW-620 colon): > 100 µM
TGI (SK-MEL-28 melanoma): > 100 µM
TGI (HL-60(TB) leukemia): > 100 µM
TGI (T-47D breast): > 100 µM
TGI (OVCAR-5 ovarian): > 100 µM
TGI (SK-MEL-2 melanoma): > 100 µM
TGI (OVCAR-3 ovarian): > 100 µM
TGI (BT-549 breast): > 100 µM
TGI (MALME-3M melanoma): > 100 µM
TGI (SR leukemia): > 100 µM

O=C(CSCC(=O)N/N=C\c1ccc(-c2ccccc2)cc1)N/N=C\c1ccc(-c2ccccc2)cc1
TGI (NCI-H460 lung): > 100 µM
TGI (COLO 205 colon): > 100 µM
TGI (SW-620 colon): 38.4 µM
TGI (NCI-H226 lung): 84.5 µM
TGI (SK-MEL-28 melanoma): > 100 µM
TGI (T-47D breast): > 100 µM
TGI (OVCAR-5 ovarian): 74.8 µM
TGI (SK-MEL-2 melanoma): 83.4 µM
TGI (OVCAR-3 ovarian): 30 µM
TGI (BT-549 breast): 66.3 µM
TGI (MALME-3M melanoma): 64.1 µM
TGI (SR leukemia): 26.8 µM

Cc1nnc2n1-c1ccccc1C(=S)N1CSCC21 (stereo unspecified)
TGI (NCI-H460 lung): > 100 µM
TGI (COLO 205 colon): > 100 µM
TGI (SW-620 colon): > 100 µM
TGI (NCI-H226 lung): > 100 µM
TGI (SK-MEL-28 melanoma): > 100 µM
TGI (T-47D breast): > 100 µM
TGI (OVCAR-5 ovarian): > 100 µM
TGI (SK-MEL-2 melanoma): > 100 µM
TGI (OVCAR-3 ovarian): > 100 µM
TGI (BT-549 breast): > 100 µM
TGI (MALME-3M melanoma): > 100 µM
TGI (SR leukemia): > 100 µM

Clc1ccc(C2NN=C3c4ccccc4OCC32)cc1 (stereo unspecified)
TGI (NCI-H460 lung): 25.8 µM
TGI (COLO 205 colon): 12.4 µM
TGI (SW-620 colon): > 25.3 µM
TGI (NCI-H226 lung): 14.2 µM
TGI (SK-MEL-28 melanoma): > 85.6 µM
TGI (HL-60(TB) leukemia): 11.9 µM
TGI (T-47D breast): 54.3 µM
TGI (OVCAR-5 ovarian): > 100 µM
TGI (SK-MEL-2 melanoma): 15.5 µM
TGI (OVCAR-3 ovarian): 29.6 µM
TGI (BT-549 breast): 79.3 µM
TGI (MALME-3M melanoma): 23.1 µM
TGI (SR leukemia): 5.67 µM

CN1CN(c2ccccc2)C2(CCN(CCc3csc4ccccc34)CC2)C1=O
TGI (COLO 205 colon): 35.7 µM
TGI (SW-620 colon): 39.3 µM
TGI (NCI-H226 lung): 39.6 µM
TGI (SK-MEL-28 melanoma): 29.7 µM
TGI (HL-60(TB) leukemia): 31.2 µM
TGI (T-47D breast): 54.2 µM
TGI (OVCAR-5 ovarian): 25.3 µM
TGI (OVCAR-3 ovarian): 26.6 µM
TGI (BT-549 breast): 17.7 µM
TGI (MALME-3M melanoma): 29.1 µM
TGI (SR leukemia): 80.6 µM
